Results: PubChem BioAssay AID258 (DTP/NCI, 2004)
“And” between values parts separate entries of the source, which are not always exact repeats. Equal entries are not always repeated. Toxic doses and inconclusive results are not listed.

Tested on: CD2F1 mice, L1210 leukemia sc, survival T/C
Experiment: NCI In Vivo Anticancer Drug Screen. Data for tumor model L1210 Leukemia (subcutaneous) in CD2F1 (CDF1) mice
Conditions: endpoint: median survival time, higher = longer survival
Method in brief: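 Antitumor activity is scored in tumor-bearing mice by comparing survival or tumor size of treated animals against vehicle-treated controls, reported as T/C.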

[1] = dose: 24.0 mg/kg/injection, schedule: Q01DX009 (ip), vehicle: water
[2] = dose: 38.9 mg/kg/injection, schedule: Q01DX Z (sc), vehicle: methylcellulose (MC)
[3] = dose: 64.8 mg/kg/injection, schedule: Q01DX Z (sc), vehicle: methylcellulose (MC)
[4] = dose: 108.0 mg/kg/injection, schedule: Q01DX Z (sc), vehicle: methylcellulose (MC)
[5] = dose: 180.0 mg/kg/injection, schedule: Q01DX Z (sc), vehicle: methylcellulose (MC)

S=P(N1CC1)(N1CC1)N1CC1
T/C (dose: 1.5 mg/kg/injection, schedule: Q01DX009 (ip), vehicle: water): 107 % of control | T/C (dose: 1.5 mg/kg/injection, schedule: Q01DX009 (sc), vehicle: water): 105 % of control | T/C (dose: 3.0 mg/kg/injection, schedule: Q01DX009 (ip), vehicle: water): 105 % of control | T/C (dose: 3.0 mg/kg/injection, schedule: Q01DX009 (sc), vehicle: saline): 121 % of control | T/C (dose: 3.0 mg/kg/injection, schedule: Q01DX009 (sc), vehicle: water): 101 % of control | T/C (dose: 6.0 mg/kg/injection, schedule: Q01DX009 (ip), vehicle: water): 121 % of control | T/C (dose: 6.0 mg/kg/injection, schedule: Q01DX009 (sc), vehicle: saline): 166 % of control and 176 % of control | T/C (dose: 6.0 mg/kg/injection, schedule: Q01DX009 (sc), vehicle: water): 122 % of control | T/C [1]: 194 % of control | T/C (dose: 24.0 mg/kg/injection, schedule: Q01DX009 (sc), vehicle: water): 157 % of control | T/C (dose: 12.0 micrograms/kg/injection, schedule: Q01DX009 (ip), vehicle: saline): 100 % of control | T/C (dose: 12.0 micrograms/kg/injection, schedule: Q01DX009 (sc), vehicle: saline): 107 % of control | T/C (dose: 25.0 micrograms/kg/injection, schedule: Q01DX009 (ip), vehicle: saline): 104 % of control | T/C (dose: 25.0 micrograms/kg/injection, schedule: Q01DX009 (sc), vehicle: saline): 98 % of control | T/C (dose: 50.0 micrograms/kg/injection, schedule: Q01DX009 (ip), vehicle: saline): 104 % of control | T/C (dose: 50.0 micrograms/kg/injection, schedule: Q01DX009 (sc), vehicle: saline): 100 % of control | T/C (dose: 100.0 micrograms/kg/injection, schedule: Q01DX009 (ip), vehicle: saline): 100 % of control | T/C (dose: 100.0 micrograms/kg/injection, schedule: Q01DX009 (sc), vehicle: saline): 98 % of control | T/C (dose: 200.0 micrograms/kg/injection, schedule: Q01DX009 (ip), vehicle: saline): 96 % of control | T/C (dose: 200.0 micrograms/kg/injection, schedule: Q01DX009 (sc), vehicle: saline): 102 % of control | T/C (dose: 400.0 micrograms/kg/injection, schedule: Q01DX009 (ip), vehicle: saline): 102 % of control | T/C (dose: 400.0 micrograms/kg/injection, schedule: Q01DX009 (sc), vehicle: saline): 102 % of control

CSC1SCC2C(=O)N(C)C(C(C)C)C(=O)OCC(NC(=O)c3cnc4ccccc4n3)C(=O)NC(C)C(=O)N(C)C1C(=O)N(C)C(C(C)C)C(=O)OCC(NC(=O)c1cnc3ccccc3n1)C(=O)NC(C)C(=O)N2C (configuration not stated)
T/C (dose: 7.5 micrograms/kg/injection, schedule: Q01DX009 (ip), vehicle: Klucel (hydroxypropylcellulose) (HPC)): 98 % of control | T/C (dose: 15.0 micrograms/kg/injection, schedule: Q01DX009 (ip), vehicle: Klucel (hydroxypropylcellulose) (HPC)): 97 % of control | T/C (dose: 30.0 micrograms/kg/injection, schedule: Q01DX009 (ip), vehicle: Klucel (hydroxypropylcellulose) (HPC)): 96 % of control | T/C (dose: 60.0 micrograms/kg/injection, schedule: Q01DX009 (ip), vehicle: Klucel (hydroxypropylcellulose) (HPC)): 100 % of control | T/C (dose: 120.0 micrograms/kg/injection, schedule: Q01DX009 (ip), vehicle: Klucel (hydroxypropylcellulose) (HPC)): 102 % of control

Cc1ccc(C(=O)Nc2ccc(S(=O)(=O)O)c3cc(S(=O)(=O)O)cc(S(=O)(=O)O)c23)cc1NC(=O)c1cccc(NC(=O)Nc2cccc(C(=O)Nc3cc(C(=O)Nc4ccc(S(=O)(=O)O)c5cc(S(=O)(=O)O)cc(S(=O)(=O)O)c45)ccc3C)c2)c1
T/C (dose: 10.0 mg/kg/injection, schedule: Q07DX003 (iv), vehicle: water): 97 % of control | T/C (dose: 20.0 mg/kg/injection, schedule: Q07DX003 (iv), vehicle: water): 96 % of control | T/C (dose: 40.0 mg/kg/injection, schedule: Q07DX003 (iv), vehicle: water): 100 % of control

O=NNc1cnccn1
T/C (dose: 8.6 mg/kg/injection, schedule: Q01DX009 (ip), vehicle: water): 96 % of control | T/C (dose: 14.4 mg/kg/injection, schedule: Q01DX009 (ip), vehicle: water): 104 % of control | T/C [1]: 100 % of control | T/C (dose: 66.66 mg/kg/injection, schedule: Q01DX009 (ip), vehicle: water): 95 % of control | T/C (dose: 66.67 mg/kg/injection, schedule: Q01DX009 (ip), vehicle: water): 120 % of control

NS(=O)(=O)OCCCCCCCOS(N)(=O)=O
T/C (dose: 30.0 mg/kg/injection, schedule: Q01DX009 (ip), vehicle: saline with Tween-80): 124 % of control | T/C (dose: 83.3 mg/kg/injection, schedule: Q01DX009 (ip), vehicle: saline with Tween-80): 179 % of control | T/C (dose: 138.8 mg/kg/injection, schedule: Q01DX009 (ip), vehicle: saline with Tween-80): 118 % of control

Oc1cc(CN(CCCl)CCCl)c(O)cc1CN(CCCl)CCCl
T/C (dose: 23.4 mg/kg/injection, schedule: Q01DX Z (sc), vehicle: methylcellulose (MC)): 105 % of control | T/C [2]: 110 % of control | T/C [3]: 115 % of control | T/C [4]: 115 % of control | T/C [5]: 105 % of control

O=NN(CCF)C(=O)NC1CCCCC1
T/C (dose: 1.85 mg/kg/injection, schedule: Q01DX Z (sc), vehicle: carboxymethylcellulose (CMC)): 100 % of control | T/C (dose: 3.75 mg/kg/injection, schedule: Q01DX Z (sc), vehicle: carboxymethylcellulose (CMC)): 111 % of control | T/C (dose: 7.5 mg/kg/injection, schedule: Q01DX Z (sc), vehicle: carboxymethylcellulose (CMC)): 376 % of control | T/C (dose: 15.0 mg/kg/injection, schedule: Q01DX Z (sc), vehicle: carboxymethylcellulose (CMC)): 394 % of control | T/C (dose: 30.0 mg/kg/injection, schedule: Q01DX Z (sc), vehicle: carboxymethylcellulose (CMC)): 211 % of control

COc1ccc2c(c1)-c1nn(CCCN(C)C)c3ccc([N+](=O)[O-])c(c13)N2
T/C (dose: 3.12 mg/kg/injection, schedule: Q01DX009 (ip), vehicle: water): 122 % of control | T/C (dose: 6.25 mg/kg/injection, schedule: Q01DX009 (ip), vehicle: water): 161 % of control | T/C (dose: 25.0 mg/kg/injection, schedule: Q01DX009 (ip), vehicle: water): 104 % of control

ONc1nc(NO)c2[nH]cnc2n1
T/C (dose: 8.0 mg/kg/injection, schedule: Q01DX Z (sc), vehicle: steriod suspending solution): 100 % of control | T/C (dose: 32.0 mg/kg/injection, schedule: Q01DX Z (sc), vehicle: steriod suspending solution): 175 % of control | T/C (dose: 64.0 mg/kg/injection, schedule: Q01DX Z (sc), vehicle: steriod suspending solution): 200 % of control

O=C(NO)c1cc(O)c(O)c(O)c1
T/C (dose: 25.0 mg/kg/injection, schedule: Q01DX009 (ip), vehicle: distilled water + Tween-80): 97 % of control and 100 % of control | T/C (dose: 50.0 mg/kg/injection, schedule: Q01DX009 (ip), vehicle: distilled water + Tween-80): 104 % of control | T/C (dose: 100.0 mg/kg/injection, schedule: Q01DX009 (ip), vehicle: distilled water + Tween-80): 100 % of control and 102 % of control | T/C (dose: 200.0 mg/kg/injection, schedule: Q01DX009 (ip), vehicle: distilled water + Tween-80): 124 % of control | T/C (dose: 400.0 mg/kg/injection, schedule: Q01DX009 (ip), vehicle: distilled water + Tween-80): 90 % of control

Nc1nc2n[nH]nc2c(=O)[nH]1
T/C (dose: 50.0 mg/kg/injection, schedule: Q01DX009 (sc), vehicle: saline): 122 % of control | T/C (dose: 75.0 mg/kg/injection, schedule: Q01DX009 (sc), vehicle: saline): 114 % of control

Clc1ccc(CSc2ncnc3nc[nH]c23)cc1
T/C [2]: 100 % of control | T/C [3]: 100 % of control | T/C [4]: 100 % of control | T/C [5]: 100 % of control | T/C (dose: 300.0 mg/kg/injection, schedule: Q01DX Z (sc), vehicle: methylcellulose (MC)): 100 % of control | T/C (dose: 500.0 mg/kg/injection, schedule: Q01DX Z (sc), vehicle: methylcellulose (MC)): 104 % of control
